Assays:
Assay in all cases: MIC, antibacterial and synergistic activity
Assay type in all cases: cell-based
[1] = tested on: P. aerug JMI 149; details: P. aerug JMI 149 (Bla+++D+)
[2] = tested on: K. pneumo JMI 2699; details: K. pneumo JMI 2699 (VIM-1, CTX-M3)
Experimental: (§1) In the Tables 10 - 12, compounds herein disclosed were tested in combination with various antibiotics against metallo β-lactamase producing bacteria. Table 3: Synergy of the inhibitor Ex. 1 (4 µg/mL) in combination with antibiotics

[3] = tested on: K.pneumo JMI 4109; details: K.pneumo JMI 4109 (SHV-1, SHV-12)
Experimental: as §1

[4] = tested on: E. coli JMI 10770; details: E. coli JMI 10770 (CTX-M15 (Hyper ESBL))
Experimental: as §1

[5] = tested on: E. coli JMI 2671
Experimental: as §1

[6] = tested on: E. coli JMI 10767; details: E. coli JMI 10767 (Wt)
Experimental: as §1

[7] = tested on: E. coli JMI 10768; details: E. coli JMI 10768 (CTX-M15 (Weak ESBL))
Experimental: as §1

[8] = tested on: E. coli JMI 2665
Experimental: as §1

[9] = tested on: K. pneumo JMI 4088; details: K. pneumo JMI 4088 (KPC-3 (Cpase)); substance alone
[10] = tested on: E. coli JMI 2692; details: E. coli JMI 2692 (NDM-1, TEM-1, CTX-M-15)
Experimental: (§2) In the Tables 10 - 12, compounds herein disclosed were tested in combination with various antibiotics against metallo β-lactamase producing bacteria.

[11] = tested on: K. pneumo JMI 2697; details: K. pneumo JMI 2697 (IMP-4 (Cpase))
Experimental: as §2

[12] = tested on: K. pneumo JMI 2693; details: K. pneumo JMI 2693 (NDM-1 (Cpase))
Experimental: as §2

[13] = tested on: K. pneumo JMI 2681; details: K. pneumo JMI 2681 (Oxa-48 (Cpase))
[14] = tested on: K. pneumo JMI 2674; details: K. pneumo JMI 2674 (CTX-M15 (ESBL)); substance alone
[15] = tested on: E. coli JMI 4080
[16] = tested on: E. coli JMI 10767; details: E. coli JMI 10767 (Wt); remark: listed apart in the source
[17] = tested on: E.coli JMI 4103; details: E.coli JMI 4103 (KPC-2, Tem-1, CMY-Type)
[18] = tested on: E. coli ATCC 25922; details: E. coli ATCC 25922 (Wt)
[19] = tested on: P. aerug JMI 2686; details: P. aerug JMI 2686 (KPC-2 (Cpase)); substance alone
[20] = tested on: E. coli JMI 11103
[21] = tested on: K. pneumo JMI 4106; details: K. pneumo JMI 4106 (KPC-3, TEM-1, SHV-12, SHV-141)
[22] = tested on: E. coli JMI 10768; details: E. coli JMI 10768 (CTX-M15 (Weak ESBL)); Meropenem + inhibitor at 4 µg/mL
[23] = Aztreonam + inhibitor at 4 µg/mL
[24] = Ceftazidime + inhibitor at 4 µg/mL
[25] = Meropenem + inhibitor at 4 µg/mL

`CCC(=O)NNC(=O)[C@@H]1CC[C@@H]2CN1C(=O)N2OS(=O)(=O)O` [Ex. 8, (2S,5R)-7-oxo-N'-propanoyl-6-(sulfooxy)-1,6-diazabicyclo[3.2.1]octane-2-carbohydrazide] was tested, and the “MIC Aztreonam + inhibitor” value [1, 23] was >4 µg/mL, the “MIC Ceftazidime + inhibitor” value [1, 24] was >16 µg/mL and the “MIC Meropenem + inhibitor” value [1, 25] was 0.5 µg/mL. The MIC ([1]; substance alone, read-out: MIC) was > 16 µg/mL, the “MIC Aztreonam + inhibitor” value [2, 23] was ≤0.062 µg/mL and the “MIC Ceftazidime + inhibitor” value [2, 24] was ≤0.25 µg/mL. For the same compound, the “MIC Meropenem + inhibitor” value [2, 25] was 0.125 µg/mL, the MIC ([2]; substance alone, read-out: MIC) was > 16 µg/mL and the “MIC Aztreonam + inhibitor” value [3, 23] was ≤0.062 µg/mL. For the same compound, the “MIC Ceftazidime + inhibitor” value [3, 24] was ≤0.25 µg/mL, the “MIC Meropenem + inhibitor” value [3, 25] was ≤0.0312 µg/mL and the “MIC Aztreonam + inhibitor” value [4, 23] was ≤0.062 µg/mL. For the same compound, the “MIC Ceftazidime + inhibitor” value [4, 24] was ≤0.25 µg/mL, the “MIC Meropenem + inhibitor” value [4, 25] was ≤0.0312 µg/mL and the “MIC Aztreonam + inhibitor” value ([5]; E. coli JMI 2671 (VIM-19 (Cpase)), Aztreonam + inhibitor at 4 µg/mL) was ≤0.062 µg/mL. For the same compound, the “MIC Ceftazidime + inhibitor” value ([5]; E. coli JMI 2671 (VIM-19 (Cpase)), Ceftazidime + inhibitor at 4 µg/mL) was 0.5 µg/mL, the “MIC Meropenem + inhibitor” value ([5]; E. coli JMI 2671 (VIM-19 (Cpase)), Meropenem + inhibitor at 4 µg/mL) was 1 µg/mL and the MIC ([5]; Escherichia coli, JMI2671, E. coli JMI 2671 (VIM-19 (Cpase)), substance alone) was > 16 µg/mL. The “MIC Aztreonam + inhibitor” value [6, 23] was ≤0.062 µg/mL, the “MIC Ceftazidime + inhibitor” value [6, 24] was ≤0.25 µg/mL and the “MIC Aztreonam + inhibitor” value [7, 23] was ≤0.062 µg/mL. The “MIC Ceftazidime + inhibitor” value [7, 24] was ≤0.25 µg/mL, the MIC ([7]; Escherichia coli, JMI10768, substance alone) was > 16 µg/mL and the “MIC Aztreonam + inhibitor” value ([8]; E. coli JMI 2665 (CMY-2 (Plasmid Cpase)), Aztreonam + inhibitor at 4 µg/mL) was ≤0.062 µg/mL. The “MIC Ceftazidime + inhibitor” value ([8]; E. coli JMI 2665 (CMY-2 (Plasmid Cpase)), Ceftazidime + inhibitor at 4 µg/mL) was ≤0.25 µg/mL, the MIC ([8]; Escherichia coli, JMI2665) was 4 µg/mL and the MIC [9] was > 16 µg/mL. For the same compound, the “MIC Aztreonam + inhibitor” value [10, 23] was ≤0.062 µg/mL, the “MIC Ceftazidime + inhibitor” value [10, 24] was ≤0.25 µg/mL and the “MIC Meropenem + inhibitor” value [10, 25] was 2 µg/mL. For the same compound, the MIC ([10]; Escherichia coli, JMI2692, substance alone, read-out: MIC) was 4 µg/mL, the “MIC Aztreonam + inhibitor” value [11, 23] was ≤0.062 µg/mL and the “MIC Ceftazidime + inhibitor” value [11, 24] was 16 µg/mL. The “MIC Meropenem + inhibitor” value [11, 25] was 2 µg/mL, the MIC ([11]; substance alone) was > 16 µg/mL and the “MIC Aztreonam + inhibitor” value [12, 23] was 2 µg/mL. For the same compound, the “MIC Ceftazidime + inhibitor” value [12, 24] was 8 µg/mL, the “MIC Meropenem + inhibitor” value [12, 25] was 0.125 µg/mL and the MIC ([12]; substance alone) was > 16 µg/mL. The “MIC Aztreonam + inhibitor” value [13, 23] was 0.125 µg/mL, the “MIC Ceftazidime + inhibitor” value [13, 24] was ≤0.25 µg/mL and the “MIC Meropenem + inhibitor” value [13, 25] was 0.5 µg/mL. The MIC ([13]; substance alone, read-out: MIC) was > 16 µg/mL, the MIC [14] was > 16 µg/mL and the “MIC Aztreonam + inhibitor” value ([15]; E. coli JMI 4080 (Tem-10), Aztreonam + inhibitor at 4 µg/mL) was ≤0.062 µg/mL. The “MIC Ceftazidime + inhibitor” value ([15]; E. coli JMI 4080 (Tem-10), Ceftazidime + inhibitor at 4 µg/mL) was ≤0.25 µg/mL, the “MIC Meropenem + inhibitor” value ([15]; E. coli JMI 4080 (Tem-10), Meropenem + inhibitor at 4 µg/mL) was ≤0.0312 µg/mL and the MIC ([15]; Escherichia coli, JMI4080, E. coli JMI 4080 (Tem-10), substance alone) was 4 µg/mL. For the same compound, the “MIC Meropenem + inhibitor” value [16, 25] was ≤0.0312 µg/mL, the MIC ([16]; Escherichia coli, JMI10767, substance alone) was > 16 µg/mL and the “MIC Aztreonam + inhibitor” value [17, 23] was ≤0.062 µg/mL. The “MIC Ceftazidime + inhibitor” value [17, 24] was ≤0.25 µg/mL, the “MIC Meropenem + inhibitor” value [17, 25] was ≤0.0312 µg/mL and the MIC ([17]; Escherichia coli, JMI4103, substance alone) was 4 µg/mL. The “MIC Aztreonam + inhibitor” value [18, 23] was ≤0.0625 µg/mL, the “MIC Ceftazidime + inhibitor” value [18, 24] was ≤0.25 µg/mL and the “MIC Meropenem + inhibitor” value [18, 25] was ≤0.0312 µg/mL. The MIC ([18]; Escherichia coli, ATCC25922, substance alone) was 16 µg/mL, the MIC [19] was > 16 µg/mL and the “MIC Aztreonam + inhibitor” value ([20]; E. coli JMI 11103 (CTX-M15 (Intermediate ESBL)), Aztreonam + inhibitor at 4 µg/mL) was ≤0.062 µg/mL. For the same compound, the “MIC Ceftazidime + inhibitor” value ([20]; E. coli JMI 11103 (CTX-M15 (Intermediate ESBL)), Ceftazidime + inhibitor at 4 µg/mL) was ≤0.25 µg/mL, the “MIC Meropenem + inhibitor” value ([20]; E. coli JMI 11103 (CTX-M15 (Intermediate ESBL)), Meropenem + inhibitor at 4 µg/mL) was ≤0.0312 µg/mL and the MIC ([20]; Escherichia coli, JMI11103, E. coli JMI 11103 (CTX-M15 (Intermediate ESBL)), substance alone) was > 16 µg/mL. The “MIC Aztreonam + inhibitor” value [21, 23] was ≤0.062 µg/mL, the “MIC Ceftazidime + inhibitor” value [21, 24] was ≤0.25 µg/mL and the “MIC Meropenem + inhibitor” value [21, 25] was ≤0.0312 µg/mL. For the same compound, the MIC ([21]; substance alone, read-out: MIC) was > 16 µg/mL and the “MIC Meropenem + inhibitor” value [22] was ≤0.0312 µg/mL.

Reference: patent EP2931723B1, “NEW BICYCLIC COMPOUNDS AND THEIR USE AS ANTIBACTERIAL AGENTS AND -LACTAMASE INHIBITORS” (Fedora Pharmaceuticals Inc., priority 2012, dated 2014)
